# “Also recorded” adds a separate entry of the source. Like-named read-outs stand apart in the source and are kept apart here.
# Key:
# [1] = system: endothelial cells; experiment: Proliferation of endothelial cells (general statement); format: cell-based
# [2] = system: vascular smooth muscle cells; experiment: Proliferation/growth of vascular smooth muscle cells (general statement); format: cell-based
# [3] = system: rat vascular smooth muscle cells; experiment: cells; format: cell-based
# Experimental: DNA synthesis assessed by the uptake of [3H]thymidine: Cells are grown in either 48 or 96 wells plates (Costar, Cambridge, Mass.) at 104 and 0.8 10^3 cells per well, respectively, and grown in Dubelcco's modified Eagle's medium (DME, Gibco, Grand Island, N.Y.) supplemented with 10% heat-inactivated calf serum; they are kept at 37° C. in 5% CO2. When they reach confluence, usually between 3 and 4 days, the medium is replaced with DME 0.5% serum to make them quiescent, and mitogenesis assays are performed 24 hours later.
# Quiescent cells are exposed to a mitogenic stimulus, such as 10% serum, PDGF (Sigma Co. St. Louis, Mo.), bFGF (Upstate Biotechnologies, Lake Placid, N.Y.), or other appropriate mitogen according to the cell line, and 3 hours later 1 μCi/ml of [3H]thymidine (Dupont, Billerica, Mass. ) is added to the wells, and the cells maintained at 37° C./5% CO2 for additional 21 hours. Then the cells are washed 3 times with DME medium and the acid-precipitable radioactivity is extracted with cold 10% TCA (Sigma, Co). After neutralization with 0.3 N NaOH (Sigma Co.), aliquots are counted in a Packard Tri-Carb Scintillation counter (Packard Instrument, Downer's Grove, Ill.).
# Rat vascular smooth muscle cells (murine cell line): Quiescent cells were stimulated with purified growth factors (PDGF and bFGF, […]) and synthesis of DNA was assessed by the incorporation of [3H]thymidine measured 24 hours later.
# Cells were stimulated using […] bFGF. […] (FIG. 2)
# Other antimycotics were tested for their inhibition of bFGF-stimulated DNA synthesis in rat vascular smooth muscle cells.
# [4] = system: bovine endothelial (BAEC); experiment: Cell growth (surface of culture flask covered by cell monolayer), bovine endothelial cells; format: cell-based; details: 10 μM, 48 hs, without CLT 90±2%
# Experimental: (§1) Measurement of cell density in culture plates: Cells of a specific test cell line are seeded at precisely the same low density in culture plates and incubated for approximately 12 hours in DME 10% serum, or other culture medium depending on the cell line tested. […] Alternatively, the cells can be detached from the plate by incubation with trypsin (Sigma, Co.) […] in ethylene diaminotetraacetic acid (ECTA; Sigma, Co); then the cells are counted in an hemocytometer chamber (Fisher, Pittsburgh, Pa.).
# (§2) Bovine endothelial (BAEC) and human umbilical vein (HUVEC): Cells were seeded at a low density (2.5×10^5) in cell culture flasks (75 ml flasks) containing DME 10% calf serum (BAEC) or fetal calf serum (HUVEC); after 12 hs, when the cells were attached to the surface of the flasks, CLT (10 μM) or carrier (ethanol) were added to triplicate flasks. After 48 hs cell growth was assessed by optic miscroscopy calculating the surface of the culture flask covered by the cell monolayer.
# [5] = system: human umbilical vein (HUVEC); experiment: Cell growth (surface of culture flask covered by cell monolayer), human umbilical vein cells; format: cell-based; details: 10 μM, 48 hs, without CLT 90±2%
# Experimental: as §1, §2
# [6] = target: T1, Ca^++ activated K channel of human erythrocytes (Homo sapiens, UniProt O15554); experiment: Inhibition of Ca++ activated K channel of human erythrocytes, 86Rb influx; format: biochemical; details: for Order of inhibitory potency, Ca++ activated 86Rb influx / Inhibition of Ca++ activated 86Rb influx by other antimycotics: human erythrocytes; for Inhibition of Ca++ activated 86Rb influx by other antimycotics: FIG. 4
# T1 construct: Preparation of Human Red Blood Cells: Blood is collected in heparinized tubes; endogenous in cells; host or cells: washed human erythrocytes (red blood cells from heparinized blood)
# Experimental: (§3) Preparation of Human Red Blood Cells: Blood is collected in heparinized tubes and centrifuged in a Sorvall centrifuge (RB 5B, Du Pont Instruments,Newtown, Conn.) at 5° C. for 10 minutes at 3000 g. Plasma and buffy coat are carefully removed and the cells washed four times with a washing solution containing 150 mM choline chloride (Sigma Co), 1 mM MgCl2 (Sigma Co),10mM Tris-MOPS (Sigma, Calif.), pH 7.4 at 4° C.(CWS). An aliquot of cells is then suspended in an approximately equal volume of CWS, and from this original cell suspension hematocrit (Hct) and hemoglobin (optical density at 540 nm) are determined.
# Methods to Test Inhibitors of the Ca^++ Activated K channel: To test inhibitors of the Ca^++ activated K channel, the channel is activated using the calcium ionophore A23187 (Calbiochem).
# By radioisotopic measurement of ^86 Rb influx. The incubation medium is the same but contains 2 mM KCl and 1 μCi/ml of the radioactive tracer ^86 Rb. After spinning the samples through the phthalate layer, the tubes are rapidly frozen (-80° C.) by immersion in methanol-dry ice, the tips of the tubes containing the packed red cells cut, and counted in a Packard Gamma Counter.
# (§4) The inhibitory effect of (CLT) on the Ca^++ activated K channel of human erythrocytes was assessed in the presence of 60 μmol A23187/L cell and 100 μMCaCl2.
# Other antimycotics were tested for their inhibition of the Ca++ activated 86Rb influx human erythrocytes.
# [7] = target: T1, Ca^++ activated K channel of human erythrocytes; experiment: Inhibition of Ca++ activated K channel of human erythrocytes, K efflux; format: biochemical; details: 60 μmol A23187/L cell, 100 μM CaCl2
# From the text: Ca^++ -sensitive K+ channels have wide distribution among cells, including the human red cell where they were originally discovered and which is the most commonly utilized assay system for activators and inhibitors of the channel for the following reasons: they are readily available, can be easily manipulated in the laboratory, and transport assays can be accurately standardized by reading the hemoglobin concentration of a red cell suspension.
# as §3, with “determined. […]” for “determined.”
# as §4
# [8] = system: Swiss 3T3 cells; experiment: Proliferative response to mitogens released from MAC-treated endothelial cells, 3T3 cells; format: cell-based; details: 10 μM CLT; quiescent 3T3 cells; conditioned media from MAC treated EC; FIG. 5
# Experimental: (§5) CLT inhibits the mitogenic activity released from endothelial cells by activated component. When endothelial cells (EC) in culture (both BAEC and HUVEC) are treated with terminal complement components to form the MAC (membrane attack complex of complement), they release into the culture medium a potent mitogenic activity that stimulates the proliferation of quiescent cells used as indicators of the mitogens. Both, quiescent Swiss 3T3 and vascular smooth muscle cells are stimulated by the mitogens released form EC in response to the MAC (FIG. 5; Halperin et al. unpublished observation). Moreover, immunoprecipitation with specific antibodies has documented that both PDGF and bFGF released from the EC contribute in approximately equal proportion to the mitogenic activity induced by the MAC (data not shown).
# (§6) To determine whether CLT inhibited the cell proliferative activity released by the MAC from EC, quiescent 3T3 and vascular smooth muscle cells were stimulated in the presence and absence of 10 μM CLT with conditioned media obtained from MAC treated EC.
# [9] = system: vascular smooth muscle cells; experiment: Proliferative response to mitogens released from MAC-treated endothelial cells, vascular smooth muscle cells; format: cell-based; details: 10 μM CLT; quiescent vascular smooth muscle cells; conditioned media from MAC treated EC; FIG. 5
# Experimental: as §5, §6
# [10] = system: epidermal cells; experiment: Growth of epidermal cells (general statement); format: cell-based
# [11] = hormonal adjuvant for prostate cancer; cited from earlier work
# [12] = system: 17-20 desmolase; details: cited from earlier work
# [13] = system: 17-hydroxylase; details: cited from earlier work
# [14] = system: 21- and/or 11-hydroxylase; details: cited from earlier work
molecule,measurement,setting,value
N=C(N)NC(=O)c1nc(Cl)c(N)nc1N [amiloride],Inhibition of proliferation of endothelial cells,[1],do not inhibit cell proliferation
same,Inhibition of proliferation/growth of vascular smooth muscle cells,[2],do not inhibit cell proliferation
Clc1ccccc1C(c1ccccc1)(c1ccccc1)n1ccnc1 [clotrimazole],Dose response of inhibition of DNA synthesis,[3],dose dependent
same,Inhibition of DNA synthesis,[3],complete inhibition
same,Inhibition of PDGF stimulated DNA synthesis,[3],completely inhibited
same,Inhibition of bFGF stimulated DNA synthesis,[3],completely inhibited
same,Inhibition of bFGF-stimulated DNA synthesis,[3],inhibited DNA synthesis
same,"Order of inhibitory potency, bFGF-stimulated DNA synthesis",[3],CLT more potent than ECZ
same,Reversibility of the inhibition of DNA synthesis,[3],reversed by removing CLT
same,inhibition at 1 µM,"[3]; Rattus norvegicus, read-out: Inhibition of DNA synthesis",45%
same,Flask surface covered by cells in the presence of CLT,[4],less than 10%
same,Flask surface covered by cells in the presence of CLT,[5],less than 10%
same,Inhibition of Ca^++ activated 86Rb influx,"[6]; 60 μmol A23187/L cell, 100 μM CaCl2",markedly inhibited
same,"Order of inhibitory potency, Ca++ activated 86Rb influx",[6],clotrimazole more than miconazole
same,Inhibition of Ca^++ activated K efflux,[7],markedly inhibited
same,Inhibition of proliferative response to mitogens released from EC,[8],completely inhibited
same,Inhibition of proliferative response to mitogens released from EC,[9],completely inhibited
Clc1ccc(COC(Cn2ccnc2)c2ccc(Cl)cc2Cl)cc1 (stereo not drawn) [econazole],"Order of inhibitory potency, bFGF-stimulated DNA synthesis","[3]; 10 μM, FIG. 3",ECZ more potent than MCZ
same,Inhibition of bFGF-stimulated DNA synthesis,"[3]; antimycotics at 10 μM, FIG. 3",inhibited DNA synthesis
same,"Order of inhibitory potency, Ca++ activated 86Rb influx",[6],both of these were more than econazole
OC(Cn1cncn1)(Cn1cncn1)c1ccc(F)cc1F [fluconazole],Inhibition of Ca++ activated 86Rb influx by other antimycotics,[6],no inhibition
CC(=O)N1CCN(c2ccc(OCC3COC(Cn4ccnc4)(c4ccc(Cl)cc4Cl)O3)cc2)CC1 (stereo not drawn) [ketoconazole],Inhibition of proliferation of endothelial cells,[1],not useful for inhibiting
same,Inhibition of proliferation/growth of vascular smooth muscle cells,[2],not useful for inhibiting; also recorded: ineffective
same,Inhibition of growth of epidermal cells,[10],ineffective
same,Plasma testosterone reduction,[11],reduces plasma testosterone to castration levels
same,Inhibition of 17-20 desmolase,[12],inhibition
same,Blockade of 17-hydroxylase,[13],partial blockade
same,Inhibition of 21- and/or 11-hydroxylase,[14],marked inhibition
Cc1ncc([N+](=O)[O-])n1CCO [metronidazole],Inhibition of Ca++ activated 86Rb influx by other antimycotics,[6],only marginal
Clc1ccc(COC(Cn2ccnc2)c2ccc(Cl)cc2Cl)c(Cl)c1 (stereo not drawn) [miconazole],"Order of inhibitory potency, bFGF-stimulated DNA synthesis","[3]; 10 μM, FIG. 3",ECZ more potent than MCZ
same,Inhibition of bFGF-stimulated DNA synthesis,"[3]; antimycotics at 10 μM, FIG. 3",inhibited DNA synthesis
same,"Order of inhibitory potency, Ca++ activated 86Rb influx",[6],both of these were more than econazole
Cc1ncc([N+](=O)[O-])n1CC(O)CCl (stereo not drawn) [ornidazole],Inhibition of Ca++ activated 86Rb influx by other antimycotics,[6],no inhibition
C[C@@H]1O[C@@H](O[C@H]2C[C@@H](O)[C@]3(CO)[C@H]4[C@H](O)C[C@]5(C)[C@@H](C6=CC(=O)OC6)CC[C@]5(O)[C@@H]4CC[C@]3(O)C2)[C@H](O)[C@H](O)[C@H]1O [ouabain],Inhibition of proliferation of endothelial cells,[1],do not inhibit cell proliferation
same,Inhibition of proliferation/growth of vascular smooth muscle cells,[2],do not inhibit cell proliferation
CCS(=O)(=O)CCn1c([N+](=O)[O-])cnc1C [tinidazole],Inhibition of Ca++ activated 86Rb influx by other antimycotics,[6],no inhibition
charybdotoxin,Inhibition of DNA synthesis by other inhibitors of the Ca^++ activated K channel,[3]; FIG. 3,failed to inhibit DNA synthesis
same,Inhibition of proliferation of endothelial cells,[1],do not inhibit proliferation
same,Inhibition of proliferation/growth of vascular smooth muscle cells,[2],do not inhibit proliferation
"iberiotoxin (QFTDVDCSVSKECWSVCKDLFGVDRGKCMGKKCRCYQ; UniProt P24663 1-37, looked up)",Inhibition of DNA synthesis by other inhibitors of the Ca^++ activated K channel,[3]; FIG. 3,failed to inhibit DNA synthesis
same,Inhibition of proliferation of endothelial cells,[1],do not inhibit proliferation
same,Inhibition of proliferation/growth of vascular smooth muscle cells,[2],do not inhibit proliferation
kaliotoxin: specific inhibitor of the Ca^++ activated potassium channel,Inhibition of DNA synthesis by other inhibitors of the Ca^++ activated K channel,[3]; FIG. 3,failed to inhibit DNA synthesis
same,Inhibition of proliferation of endothelial cells,[1],do not inhibit proliferation
same,Inhibition of proliferation/growth of vascular smooth muscle cells,[2],do not inhibit proliferation
